Test results taken from ChEMBL document CHEMBL1142867, “Antiviral activity of triazine analogues of 1-(S)-[3-hydroxy-2-(phosphonomethoxy)propyl]cytosine (cidofovir) and related compounds” (J Med Chem, 2007).
Converted amounts (≈) assume the structure as drawn.

Experiments:
[1] = Cytotoxicity against CEM cells assessed as reduction of cell growth; assay type: cell-based; conditions: human, CEM (CCRF-CEM) cells
[2] = Cytotoxicity against C3H cells assessed as alteration in cell morphology; assay type: cell-based; conditions: mouse
Human betaherpesvirus 5 [3] = assay type: functional, organism-based; conditions: Human betaherpesvirus 5, Davis, HEL
[4] = Cytotoxicity against Vero cells assessed as alteration in cell morphology; assay type: cell-based; conditions: chlorocebus sabaeus
Coxsackievirus B4 [5] = assay type: functional, organism-based; conditions: Enterovirus B, HeLa
Human alphaherpesvirus 1 [6] = assay type: functional, organism-based; conditions: Human alphaherpesvirus 1, KOS, HEL
HEL = assay: Cytotoxicity against HEL cells assessed as inhibition of cell growth after 3 days; assay type: cell-based; conditions: human, 72 h
[7] = Cytotoxicity against E6SM cells assessed as alteration in cell morphology; assay type: cell-based; conditions: human
Vaccinia virus = assay type: functional, organism-based; conditions: Orthopoxvirus vaccinia, Lederle, HEL
Human alphaherpesvirus 3 [8] = assay: Antiviral activity against VZV OKA in HEL cells assessed as inhibition of plaque formation; assay type: functional, organism-based; conditions: Human alphaherpesvirus 3, OKA
[9] = test system: Moloney murine sarcoma virus; assay: Antiviral activity against MSV in mouse C3H cells assessed as inhibition of virus-induced transformation after 6 days; assay type: functional, organism-based; conditions: 144 h
Human alphaherpesvirus 3 [10] = assay: Antiviral activity against TK- VZV 07-1 in HEL cells assessed as inhibition of plaque formation; assay type: functional, organism-based; conditions: Human alphaherpesvirus 3, 07-1, HEL
[11] = Cytotoxicity against HEL cells assessed as alteration in cell morphology after 3 days; assay type: cell-based; conditions: human, read-out: Activity
[12] = test system: Human immunodeficiency virus 2; assay type: functional, organism-based; conditions: Human immunodeficiency virus 2, ROD, CCRF-CEM
Human alphaherpesvirus 2 [13] = assay type: functional, organism-based; conditions: Human alphaherpesvirus 2, G, HEL
[14] = test system: Human immunodeficiency virus 1; assay type: functional, organism-based; conditions: Human immunodeficiency virus 1, 3B, CCRF-CEM
Punta Toro virus = assay type: functional, organism-based; conditions: Vero
[15] = Cytotoxicity against HeLa cells assessed as alteration in cell morphology; assay type: cell-based; conditions: human
[16] = test system: Respiratory syncytial virus; assay type: functional, organism-based; conditions: human respiratory syncytial virus, Long, HeLa
Sindbis virus = assay type: functional, organism-based; conditions: Vero
[17] = test system: Vesicular stomatitis virus; assay: microbe, parasite or virus in culture; conditions: E6SM
[18] = test system: Mammalian orthoreovirus 1; assay type: functional, organism-based; conditions: Mammalian orthoreovirus 1, Vero
[19] = test system: Vesicular stomatitis virus; assay: microbe, parasite or virus in culture; conditions: HeLa
Human betaherpesvirus 5 [20] = assay type: functional, organism-based; conditions: Human betaherpesvirus 5, AD169, HEL
Coxsackievirus B4 [21] = assay type: functional, organism-based; conditions: Enterovirus B, Vero
Human respirovirus 3 = assay type: functional, organism-based; conditions: Human respirovirus 3, Vero
Human alphaherpesvirus 1 [22] = assay type: functional, organism-based; conditions: Human alphaherpesvirus 1, KOS, HEL; remark: listed apart in the source
Human adenovirus 2 = assay type: functional, organism-based; conditions: Human mastadenovirus C, HEL
[23] = Cytotoxicity against HSB2 cells assessed as alteration in cell morphology; assay type: cell-based, CCRF-HSB-2; conditions: human, read-out: Activity
Human alphaherpesvirus 2 [24] = assay type: functional, organism-based; conditions: Human alphaherpesvirus 2, Lyons, HEL

Row | Structure (SMILES) | MCC [2] [µg/mL] | EC50 (Human betaherpesvirus 5 [3]) [µg/mL] | MCC [4] [µg/mL] | EC50 (Coxsackievirus B4 [5]) [µg/mL] | EC50 (Human alphaherpesvirus 1 [6]) [µg/mL] | Activity (HEL) | MCC [7] [µg/mL] | EC50 (Human alphaherpesvirus 3 [8]) [µg/mL] | EC50 [9] [µg/mL] | MCC at 72 h [11] [µg/mL] | EC50 (Human alphaherpesvirus 2 [13]) [µg/mL] | EC50 (Punta Toro virus) [µg/mL] | MCC [15] [µg/mL] | EC50 [16] [µg/mL] | EC50 (Sindbis virus) [µg/mL] | EC50 [18] [µg/mL] | EC50 [19] [µg/mL] | EC50 (Coxsackievirus B4 [21]) [µg/mL] | EC50 (Human respirovirus 3) [µg/mL] | EC50 (Human alphaherpesvirus 1 [22]) [µg/mL] | other results
1 | C[C@H](Cn1cnc(N)nc1=O)OCP(=O)(O)O | > 100 | > 100 | > 100 | > 100 | > 100 | > 50 µg/mL | > 100 | > 100 | > 100 | > 50 | > 100 | > 100 | > 100 | > 100 | > 100 | > 100 | > 100 | > 100 | > 100 |  | CC50 [1]: > 100 µg/mL; EC50 (Vaccinia virus): > 100 µg/mL; EC50 (Human alphaherpesvirus 3 [10]): > 100 µg/mL; EC50 [12]: > 100 µg/mL; EC50 [14]: > 100 µg/mL; EC50 [17]: > 100 µg/mL; EC50 (Human betaherpesvirus 5 [20]): > 100 µg/mL
2 | Nc1ncnc2c1ncn2C[C@H](O)CO [(S)-DHPA] | > 100 |  | > 400 | > 400 |  |  | > 400 |  | > 100 |  |  | 48 (≈ 229 µM) | > 400 | > 400 | 240 (≈ 1150 µM) | 48 (≈ 229 µM) | 400 (≈ 1910 µM) | 240 (≈ 1150 µM) | 48 (≈ 229 µM) |  | EC50 [12]: > 100 µg/mL; EC50 [14]: > 100 µg/mL
3 | Nc1nc2c(ncn2COCCO)c(=O)[nH]1 [ACYCLOVIR] |  |  |  |  | 0.015 (≈ 0.0666 µM) | 173.5 µg/mL |  |  |  | > 100 | 0.048 (≈ 0.213 µM) |  |  |  |  |  |  |  |  | > 20 | 
4 | O=c1[nH]c(=O)n([C@H]2C[C@H](O)[C@@H](CO)O2)cc1/C=C/Br [BRIVUDINE] | > 100 |  | > 400 | > 400 | 0.0025 (≈ 0.0075 µM) | >= 100 ug ml-1 | > 400 | 0.0069 (≈ 0.0207 µM) | > 100 | > 100 |  | > 400 | > 400 | > 400 | > 400 | > 400 | > 400 | > 400 | > 400 | > 20 | EC50 (Human alphaherpesvirus 3 [10]): ≥ 122 µg/mL; EC50 [12]: > 100 µg/mL; EC50 [14]: > 100 µg/mL; EC50 [17]: > 400 µg/mL
5 | Nc1ccn(C[C@@H](CO)OCP(=O)(O)O)c(=O)n1.O.O [CIDOFOVIR] |  | 0.3 |  |  | 0.09 | 60.9 µg/mL |  | 0.077 |  | > 100 | 0.35 |  |  |  |  |  |  |  |  | 0.38 | EC50 (Human adenovirus 2): 1.53 µg/mL; EC50 (Vaccinia virus): 2.6 µg/mL; EC50 (Human alphaherpesvirus 3 [10]): 0.073 µg/mL; EC50 (Human betaherpesvirus 5 [20]): 0.2 µg/mL; MCC [23]: 37 µg/mL; EC50 (Human alphaherpesvirus 2 [24]): 0.43 µg/mL
6 | Nc1nc(O)c2ncn(COC(CO)CO)c2n1 [GANCICLOVIR] |  | 1.5 (≈ 5.88 µM) |  |  |  | 83.6 µg/mL |  |  |  | > 100 | 0.0096 (≈ 0.0376 µM) |  |  |  |  |  |  |  |  | 0.91 (≈ 3.57 µM) | 
7 | NC(=O)c1ncn([C@@H]2O[C@H](CO)[C@@H](O)[C@H]2O)n1 [RIBAVIRIN] |  |  | > 400 | 48 (≈ 197 µM) |  |  | > 400 |  |  |  |  | 48 (≈ 197 µM) | > 400 | 16 (≈ 65.5 µM) | 240 (≈ 983 µM) | 48 (≈ 197 µM) | 80 (≈ 328 µM) | 240 (≈ 983 µM) | 48 (≈ 197 µM) |  | EC50 [17]: 240 µg/mL (≈ 983 µM)
